# Tests used:
# [1] = tested on: rat pituitary adenoma GH3 cell lines; assay: MTT cytotoxicity assay, GH3 cells; assay type: cell-based; conditions: MTT method, read-out: Cytotoxicity IC50 against GH3 cell lines
# Method: (§1) The cytotoxic activities against rat pituitary adenoma MMQ and GH3 cell lines were evaluated by MTT assay following the previous process. Briefly, MMQ and GH3 cell lines were seeded in 96-well plates (Corning, New York, NY, USA) at a density of 5 × 10^4 cells per well. Then, 10 μL of MTT reagent was added to each well and incubated at 37 °C with 5% CO2 for 4 h. Subsequently, 100 μL of acidified isopropyl alcohol was added. Then the OD value was measured at 450 nm using a microplate reader and the cell proliferation rate relative to the control was calculated. The IC50 was analyzed by SPSS 13.0 (SPSS, Chicago, IL, USA). Rat normal pituitary cells were used as a positive control.
# [2] = tested on: rat prolactinoma MMQ cell lines; assay: MTT cytotoxicity assay, MMQ cells; assay type: cell-based; conditions: MTT method, read-out: Cytotoxicity IC50 against MMQ cell lines
# Method: as §1
# [3] = MTT cytotoxicity assay, rat normal pituitary cells; assay type: cell-based; conditions: rat, rat normal pituitary cells (RPC); MTT method; normal cells used as control; read-out: Cytotoxicity IC50 against rat normal pituitary cells (RPC)
# Method: as §1
# [4] = tested on: rat normal pituitary cells (RPC); assay: MTT cytotoxicity assay, rat normal pituitary cells; assay type: cell-based; conditions: tumour cell IC50 compared with RPC IC50
# Method: as §1
# α-glucosidase = α-glucosidase (Saccharomyces cerevisiae, UniProt P53341); assay type: biochemical
# Sequence of α-glucosidase (P53341 whole entry): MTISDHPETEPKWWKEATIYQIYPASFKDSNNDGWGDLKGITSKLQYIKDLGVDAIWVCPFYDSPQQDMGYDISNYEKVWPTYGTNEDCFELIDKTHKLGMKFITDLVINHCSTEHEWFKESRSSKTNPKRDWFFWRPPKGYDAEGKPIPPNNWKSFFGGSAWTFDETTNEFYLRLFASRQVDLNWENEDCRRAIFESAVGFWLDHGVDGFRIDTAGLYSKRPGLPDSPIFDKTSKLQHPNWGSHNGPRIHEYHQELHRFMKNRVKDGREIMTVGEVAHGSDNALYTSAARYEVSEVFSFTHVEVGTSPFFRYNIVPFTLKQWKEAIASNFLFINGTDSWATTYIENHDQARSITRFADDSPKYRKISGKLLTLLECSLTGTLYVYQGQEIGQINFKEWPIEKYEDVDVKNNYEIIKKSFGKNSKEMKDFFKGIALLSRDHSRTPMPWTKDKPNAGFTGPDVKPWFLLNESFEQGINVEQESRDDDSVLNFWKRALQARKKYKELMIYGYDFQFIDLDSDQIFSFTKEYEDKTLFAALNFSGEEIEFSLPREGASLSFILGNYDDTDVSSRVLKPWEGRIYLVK
# Method: The assay of α-glucosidase inhibitory activity was carried out according to the reported method, with minor modifications. All of the assays were performed under 0.01 M potassium phosphate buffer (pH 7). Enzyme solutions were prepared to give 2.0 Units/mL in 2 mL buffer solution. Test samples were dissolved in dimethyl sulphoxide (DMSO) to give an initial concentration of 4000 μM/L. One-hundred fifty-five microliters of phosphate buffer, 10 μL of test samples, and 10 μL of diluted enzyme solution were mixed in each well of a 96-well microtiter plate. After 20 min incubation at 37 °C, 25 μL of substrate (p-nitrophenyl-α-D-glucopyranoside, 1.5 mg/mL) was added to each well to begin the enzymatic reaction. The reaction was monitored spectrophotometrically by measuring the absorbance at 410 nm for a 1 min interval. […] All measurements were done in triplicate from two independent experiments. The reported IC50 was the average value of two independent experiments.
SMILES,IC50 [1] [µM],IC50 [2] [µM],IC50 [3] [µM],"Cytotoxicity against GH3/MMQ cells, fold better than against RPC cells [4]","α-Glucosidase inhibitory effect, fold better than acarbose (α-glucosidase)"
"C[C@H]1CCC(=O)CCCCc2cc(O)cc(O)c2C(=O)O1 [Compound 8, (3S)-6-oxo-de-O-methyllasiodiplodin]",21.4,13.6,143,seven-fold,
"C[C@@H]1CCCCCCCc2cc(O)cc(O)c2C(=O)O1 [Compound 9, (3R)-de-O-methyllasiodiplodin]",6.44,6.58,6.94,,
"COc1cc(O)cc2c1C(=O)O[C@H](C)CCCCC/C=C/2 [Compound 16, (E)-9-etheno-lasiodiplodin]",,,,,seven-fold
"C[C@@H]1CCCCCCCC(=O)Cc2cc(O)cc(O)c2C(=O)O1 [Compound 17, (3R)-nordinone]",12.3,10.1,100,ten-fold,seven-fold
